Results from article PMC5572671 (Biomaterials, 2017).
Where two headings read alike, the source gives them in different places.

How the values were obtained:
[1] = cited from earlier work
Caco-2 monolayers [2] = experiment: Caco-2 monolayer drug transport assay; conditions: Fig. 6; 2 h; LC-MS
Caco-2 monolayers [3] = test system: Caco-2 monolayers
Caco-2 monolayers [4] = conditions: standard Caco-2 assay on collagen type-I; cited from earlier work

| Papp for cells on eECM with decreased CBD and decreased stiffness compared to cells grown on collagen (Caco-2 monolayers [2]) | Papp for cells on eECM with decreased CBD and decreased stiffness compared to cells grown on collagen (Caco-2 monolayers [3]) | Structure (SMILES) | in vivo absorption [1] | absorption predicted by the Caco-2 assay (Caco-2 monolayers [4]) |
| --- | --- | --- | --- | --- |
| – | – | NC(N)=Nc1nc(CSCCC(N)=NS(N)(=O)=O)cs1 [famotidine] | 35% | – |
| significantly higher | – | CC(C)(C)NCC(O)COc1cccc2c1CC(O)C(O)C2 (stereo not shown) [nadolol] | 45% | – |
| – | – | C[C@@H]1C[C@H]2[C@@H]3CCC4=CC(=O)C=C[C@]4(C)[C@@]3(F)[C@@H](O)C[C@]2(C)[C@@]1(O)C(=O)CO [dexamethasone] | > 85% | – |
| – | significantly higher | CNC(=C[N+](=O)[O-])NCCSCc1ccc(CN(C)C)o1 [ranitidine] | 51% | little to no absorption |
